Test results as given in US9556135B2, “Amino-dihydrothiazine and amino-dioxido dihydrothiazine compounds as beta-secretase antagonists and methods of use” (Amgen Inc., priority 2012, dated 2017).
Read-outs that look alike come from different tables or passages of the source.

Assays:
Cathepsin D (Cat D) = Cathepsin D (Cat D) (Homo sapiens (Human), UniProt P07339); experiment: In vitro enzymatic Cathepsin D (Cat D) FRET assay; format: biochemical; conditions: read-out: CatD IC50
Description: In Vitro Enzymatic Cathepsin D (Cat D) FRET (Fluorescence Resonance Energy Transfer) Assay Recombinant Cat D was expressed in CHO cells. […] The Cat D enzyme (9 nM) is pre-incubated for one hour with inhibitors, typically in about 1 uL of DMSO according to a serial dilution, is added thereto. […] The FRET assay is terminated with by addition of Tris buffer, which raises the pH to neutrality, and the fluorescence is determined. The FRET substrate is a peptide with commercially available fluorophore and quencher, on opposite sides of the BACE cleavage site. The Cat D substrate peptide sequence is based on sequence #1 of Table 1 from Gulnik et al. […] Where available, the in-vitro Cat D FRET assay data for each of the Examples, conducted by the first procedure, is provided.

[1] = target: Beta Secretase enzyme (BACE1) (Homo sapiens (Human), UniProt P56817); experiment: In vitro enzymatic BACE FRET assay; format: biochemical
Sequence of Beta Secretase enzyme (BACE1) (P56817 46-501): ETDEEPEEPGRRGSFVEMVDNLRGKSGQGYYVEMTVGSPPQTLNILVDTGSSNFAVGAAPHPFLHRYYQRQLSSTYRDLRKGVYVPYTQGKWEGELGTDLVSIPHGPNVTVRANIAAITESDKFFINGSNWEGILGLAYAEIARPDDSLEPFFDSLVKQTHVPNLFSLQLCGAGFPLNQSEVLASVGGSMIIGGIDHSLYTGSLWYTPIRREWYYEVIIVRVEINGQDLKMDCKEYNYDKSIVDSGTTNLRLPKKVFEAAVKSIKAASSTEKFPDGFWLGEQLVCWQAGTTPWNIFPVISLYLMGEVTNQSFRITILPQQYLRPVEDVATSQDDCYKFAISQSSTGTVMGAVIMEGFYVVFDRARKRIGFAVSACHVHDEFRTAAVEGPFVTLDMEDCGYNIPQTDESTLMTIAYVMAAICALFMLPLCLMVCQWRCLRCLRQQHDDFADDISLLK
Description: In Vitro Enzymatic BACE FRET (Fluorescence Resonance Energy Transfer) Assay (Enzyme Assay Data in the Example Tables I and II)
The assay buffer used in this screen is 0.05 M acetate, pH 4.2, 10% DMSO final, 100 uM genapol (which is a nonionic detergent, below its Critical Micelle Concentration). […] This assay is effectively started by the addition of FRET substrate (50 nM) and the combination is incubated for one hour. The FRET assay is terminated with by addition of Tris buffer, which raises the pH to neutrality, and the fluorescence is determined. The FRET substrate is a peptide with commercially available fluorophore and quencher, on opposite sides of the BACE cleavage site. Proteolytic cleavage of the FRET substrate releases quenching of fluorescence (excitation […] and […]).

[2] = system: Aβ40 in conditioned medium of cells stably expressing Amyloid Precursor Protein (APP); experiment: In vitro BACE cell-based assay (HEK cell assay), Aβ40 sandwich ELISA
Description: In Vitro BACE Cell-Based Assay
The cell-based assay measures inhibition or reduction of Aβ40 in conditioned medium of test compound treated cells expressing amyloid precursor protein.
Cells stably expressing Amyloid Precursor Protein (APP) were plated at a density of 40K cells/well in 96 well plates (Costar). The cells were cultivated for 24 hours at 37° C. and 5% CO2 in DMEM supplemented with 10% FBS. The test compounds were then added to cells in 10-point dose response concentrations with the starting concentration being either 100 μM or 10 μM. The compounds were diluted from stock solutions in DMSO and the final DMSO concentration of the test compounds on cells was 0.1%. After 24 h of incubation with the test compounds the supernatant conditioned media was collected and the Aβ 40 levels were determined using a sandwich ELISA. The IC50 of the compound was calculated from the percent of control or percent inhibition of Aβ 40 as a function of the concentration of the test compound.
The sandwich ELISA to detect Aβ 40 was performed in 96 well microtiter plates, which were pre-treated with goat anti-rabbit IgG (Pierce). The capture and detecting antibody pair that were used to detect Aβ 40 from cell supernatants were affinity purified pAb40 (Biosource) and biotinylated 6E10 (Signet Labs Inc.), respectively. The optimal concentration for the pAb40 antibody was 3 μg/ml in Superblock/TBS (Pierce) that was supplemented with 0.05% Tween 20 (Sigma).
Cellular supernatants were incubated with the capture antibody for 3 h at 4° C., followed by 3 wash steps in TBS-tween (0.05%). The detecting antibody incubation was for 2 h at 4° C., again followed by the wash steps as described previously. The final readout of the ELISA is Time-Resolved Fluorescence (counts per minute) using Delfia reagents Streptavidin-Europium and Enhancement solutions (Perkin Elmer) and the Victor 2 multilabel counter (Perkin Elmer).

Abeta 40 = experiment: In vivo inhibition of beta-secretase: Abeta 40 reduction in CSF and brain of the rat; conditions: 10 mpk (unless otherwise noted), after 4 hrs
From the text: In Vivo Inhibition of Beta-Secretase
Several animal models, including mouse, rat, dog, and monkey, may be used to screen for inhibition of beta-secretase activity in vivo following administration of a test compound sample. Animals used in this invention can be wild type, transgenic, or gene knockout animals. […] One to twenty-four hours following the administration of compound, animals are sacrificed, and brains as well as cerebrospinal fluid (CSF) and plasma are removed for analysis of A-beta levels and drug or test compound concentrations (Dovey et al., 2001, Journal of Neurochemistry, 76, 173-181) Beginning at time 0, animals are administered by oral gavage, or other means of delivery such as intravenous injection, an inhibitory test compound of up to 100 mg/kg in a standard, conventional formulation, such as 2% hydroxypropyl methylcellulose, 1% Tween80. A separate group of animals receive 2% hydroxypropyl methylcellulose, 1% Tween80 alone, containing no test compound, and serve as a vehicle-control group. At the end of the test period, animals are sacrificed and brain tissues, plasma or cerebrospinal fluid are collected. Brains are either homogenized in 10 volumes (w/v) of 0.2% diethylamine (DEA) in 50 mM NaCl (Best et al., 2005, Journal of Pharmacology and Experimental Therapeutics, 313, 902-908), or in 10 volumes of 0.5% TritonX-100 in Tris-buffered saline (pH at about 7.6). Homogenates are centrifuged at 355,000 g, 4° C. for 30 minutes. CSF or brain supernatants are then analyzed for the presence of A-beta peptide by specific sandwich ELISA assays based on ECL (Electrochemiluminescence) technology. For example, rat Abeta40 is measured using biotinylated-4G8 (Signet) as a capture antibody and Fab40 (an in-house antibody specific to the C-terminal of Abeta40) as a detection antibody.
Actual vehicles used: Oral: 2% HPMC, 1% Tween80, pH 2.2

Sequence of Cathepsin D (Cat D) (P07339 65-412, species assumed): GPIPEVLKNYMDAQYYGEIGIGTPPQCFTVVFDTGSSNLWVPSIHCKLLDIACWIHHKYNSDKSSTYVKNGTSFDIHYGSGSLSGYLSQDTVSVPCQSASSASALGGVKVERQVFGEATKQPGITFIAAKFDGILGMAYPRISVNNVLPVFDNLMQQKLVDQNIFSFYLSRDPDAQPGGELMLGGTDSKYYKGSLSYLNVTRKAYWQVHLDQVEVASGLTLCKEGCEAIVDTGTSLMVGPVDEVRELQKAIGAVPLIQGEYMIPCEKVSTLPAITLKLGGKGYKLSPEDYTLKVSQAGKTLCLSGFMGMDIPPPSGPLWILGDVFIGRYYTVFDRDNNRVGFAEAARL

COc1cnc(C(=O)Nc2ccc(F)c([C@]3(C)CSCC(N)=N3)c2)cn1 [Example 43, (R)—N-(3-(5-amino-3-methyl-3,6-dihydro-2H-1,4-thiazin-3-yl)-4-fluorophenyl)-5-methoxypyrazine-2-carboxamide]
IC50 (Cathepsin D (Cat D)): > 400 µM

COc1cnc2c(Nc3cnc(F)c([C@]4(C)CS(=O)(=O)C(C)(C)C(N)=N4)c3)nccc2c1 [Example 66, N-(5-((3R)-5-amino-3,6,6-trimethyl-1,1-dioxido-3,6-dihydro-2H-1,4-thiazin-3-yl)-6-fluoro-3-pyridinyl)-3-methoxy-1,7-naphthyridin-8-amine]
IC50 [1]: 0.0043 µM | IC50 (Cathepsin D (Cat D)): 101 µM

CC1(C)C(N)=N[C@](C)(c2cc(Nc3nccc4cc(Cl)cnc34)cc(F)c2F)CS1(=O)=O [Example 69, (R)-5-Amino-3-(5-((3-chloro-1,7-naphthyridin-8-yl)amino)-2,3-difluorophenyl)-3,6,6-trimethyl-3,6-dihydro-2H-1,4-thiazine 1,1-dioxide]
IC50 [1]: 0.0014 µM | IC50 (Cathepsin D (Cat D)): 11.3 µM

C[C@]1(c2cc(NC(=O)c3cnc(C(F)F)cn3)ccc2F)N=C(N)C2(CCC2)S(=O)(=O)[C@@H]1F [Example 140, N-(3-((6S,7R)-9-amino-6-fluoro-7-methyl-5,5-dioxido-5-thia-8-azaspiro[3.5]non-8-en-7-yl)-4-fluorophenyl)-5-(difluoromethyl)pyrazine-2-carboxamide]
IC50 (Cathepsin D (Cat D)): 400 µM

CC1(C)C(N)=NC2(c3cc(Br)ccc3F)COCC2S1(=O)=O (stereo not drawn) [Example 185, 3-amino-4a-(5-bromo-2-fluorophenyl)-2,2-dimethyl-4a,5,7,7a-tetrahydro-2H-furo[3,4-b][1,4]thiazine 1,1-dioxide]
IC50 ([1]; average IC50, enzyme assay): 30.2 µM | IC50 (Cathepsin D (Cat D)): 322 µM

CC1(C)C(N)=N[C@@]2(c3cc(Br)ccc3F)COC[C@H]2S1(=O)=O [Example 185a, (4aS,7aS)-3-amino-4a-(5-bromo-2-fluorophenyl)-2,2-dimethyl-4a,5,7,7a-tetrahydro-2H-furo[3,4-b][1,4]thiazine 1,1-dioxide]
IC50 ([1]; average IC50, enzyme assay): 4.83 µM | IC50 (Cathepsin D (Cat D)): 70.9 µM

CC1(C)C(N)=N[C@]2(c3cc(Br)ccc3F)COC[C@@H]2S1(=O)=O [Example 185b, (4aR,7aR)-3-amino-4a-(5-bromo-2-fluorophenyl)-2,2-dimethyl-4a,5,7,7a-tetrahydro-2H-furo[3,4-b][1,4]thiazine 1,1-dioxide]
IC50 ([1]; average IC50, enzyme assay): > 40 µM | IC50 (Cathepsin D (Cat D)): > 400 µM

CC1(C)C(N)=N[C@@]2(c3cc(N)ccc3F)COC[C@H]2S1(=O)=O [Example 185c, (4aS,7aS)-3-amino-4a-(5-amino-2-fluorophenyl)-2,2-dimethyl-4a,5,7,7a-tetrahydro-2H-furo[3,4-b][1,4]thiazine 1,1-dioxide]
IC50 ([1]; average IC50, enzyme assay): > 40 µM | IC50 (Cathepsin D (Cat D); Cathepsin D FRET assay): > 400 µM

CC1(C)C(N)=N[C@]2(c3cc(N)ccc3F)COC[C@@H]2S1(=O)=O [Example 185d, (4aR,7aR)-3-amino-4a-(5-amino-2-fluorophenyl)-2,2-dimethyl-4a,5,7,7a-tetrahydro-2H-furo[3,4-b][1,4]thiazine 1,1-dioxide]
IC50 ([1]; average IC50, enzyme assay): 3.83 µM | IC50 (Cathepsin D (Cat D); Cathepsin D FRET assay): 152 µM

Cc1ccc(Oc2ccc(F)c([C@]3(C)CS(=O)(=O)C(C)(C)C(N)=N3)c2)nc1 [Example 265, (5R)-5-(2-fluoro-5-((5-methyl-2-pyridinyl)oxy)phenyl)-2,2,5-3-amine 1,1-dioxide trimethyl-5,6-dihydro-2H-1,4-thiazin-3-amine 1,1-dioxide]
IC50 ([2]; average IC50): 0.804 µM

CC1(C)C(N)=N[C@](C)(c2cc(NC(=O)c3cc4ccccc4cn3)ccc2F)CS1(=O)=O [Example 343]
IC50 ([2]; average IC50, cell assay (Table II)): 0.0107 µM

CC1(C)C(N)=N[C@](C)(c2cc(Nc3ncnc4cc(C#N)cnc34)cnc2F)CS1(=O)=O [Example 384]
IC50 ([2]; average IC50): 0.0239 µM

Cc1cc(Cl)cnc1C(=O)Nc1ccc(F)c([C@]2(CF)CS(=O)(=O)C(C)(C)C(N)=N2)c1 [Example 408, N-(3-((3S)-5-amino-3-(fluoromethyl)-6,6-dimethyl-1,1-dioxido-3,6-dihydro-2H-1,4-thiazin-3-yl)-4-fluorophenyl)-5-chloro-3-methyl-2-pyridinecarboxamide]
% reduction of rat CSF levels at 10 pmk (Abeta 40): 62% | % reduction of rat brain levels at 10 mpk (Abeta 40): 37%

Cc1cc(OC(F)F)cnc1C(=O)Nc1ccc(F)c([C@]2(CF)CS(=O)(=O)C3(CCC3)C(N)=N2)c1 [Example 412, N-(3-((7S)-9-amino-7-(fluoromethyl)-5,5-dioxido-5-thia-8-azaspiro[3.5]non-8-en-7-yl)-4-fluorophenyl)-5-(difluoromethoxy)-3-methyl-2-pyridinecarboxamide]
% reduction of rat CSF levels at 10 pmk (Abeta 40): 52% | % reduction of rat brain levels at 10 mpk (Abeta 40): 33%

CC1(C)C(N)=N[C@](C)(c2cc(Nc3ccc4c(c3)OC(F)(F)O4)cnc2F)CS1(=O)=O [Example 414, (5R)-5-(5-((2,2-difluoro-1,3-benzodioxo1-5-yl)amino)-2-fluoro-3-pyridinyl)-2,2,5-trimethyl-5,6-dihydro-2H-1,4-thiazin-3-amine 1,1-dioxide]
IC50 ([2]; average IC50): 2.53 µM

COc1cnc2c(Nc3ccc(F)c([C@]4(CF)CS(=O)(=O)C(C)(C)C(N)=N4)c3)nccc2n1 [Example 447, N-(3-((3S)-5-amino-3-(fluoromethyl)-6,6-dimethyl-1,1-dioxido-3,6-dihydro-2H-1,4-thiazin-3-yl)-4-fluorophenyl)-2-methoxypyrido[3,4-b]pyrazin-5-amine]
% reduction of rat CSF levels at 10 pmk (Abeta 40): 62% | % reduction of rat brain levels at 10 mpk (Abeta 40): 42%

COc1ccc(C(=O)Nc2ccc(F)c([C@]3(CF)CS(=O)(=O)C(C)(C)C(N)=N3)c2)nc1 [Example 457, N-(3-((3S)-5-amino-3-(fluoromethyl)-6,6-dimethyl-1,1-dioxido-3,6-dihydro-2H-1,4-thiazin-3-yl)-4-fluorophenyl)-5-methoxy-2-pyridinecarboxamide]
% reduction of rat CSF levels at 10 pmk (Abeta 40): 67% | % reduction of rat brain levels at 10 mpk (Abeta 40): 50%

COCc1cc(Cl)cnc1C(=O)Nc1ccc(F)c([C@]2(CF)CS(=O)(=O)C(C)(C)C(N)=N2)c1 [Example 458, N-(3-((3S)-5-amino-3-(fluoromethyl)-6,6-dimethyl-1,1-dioxido-3,6-dihydro-2H-1,4-thiazin-3-yl)-4-fluorophenyl)-5-chloro-3-(methoxymethyl)-2-pyridinecarboxamide]
% reduction of rat CSF levels at 10 pmk (Abeta 40): 35% | % reduction of rat brain levels at 10 mpk (Abeta 40): 8%
